Data as given in US20220289732A1, “HETEROCYCLIC WDR5 INHIBITORS AS ANTI-CANCER COMPOUNDS” (NOVARTIS AG, priority 2019, published 2022).

Legend:
[1] = biological target: WDR5 (Homo sapiens, UniProt P61964); assay: WDR5 HTRF binding assay; details: read-out: (a) WDR5 HTRF Pep Val v.1[Inhibitor/IC50]Qualified AC50
Outline: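 In this HTRF displacement format, biotinylated MLL1 WIN peptide (3762-3773, 20 nM) binds WDR5 (6 nM) in 25 mM Hepes pH 7.5 with 100 mM NaCl, 2 mM DTT and 0.1% BSA for 20 min at rt. Detection used streptavidin-APC/anti-His-Eu for 1 hr. IC50 came from dose-response fits of normalized signal; 15 nM biotin-PEG-His peptide served as counter assay.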

[2] = test system: MV4-11 cells; assay: MV4-11 6-day cell growth CTG (CellTiter-Glo) assay; type: cell-based; details: Homo sapiens, MV4-11, 144 h, 6 days, read-out: (c) MLL/WDR5 cell proliferation assay//MLL/WDR5 proliferation MV4:11 Qualified AC50
Outline: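 IC50 comes from a dose-response fit of % inhibition relative to DMSO controls, with viable cells measured by CellTiter-Glo luminescence. Compounds were tested over 12 points (1:3, starting at 50 μM final) on MV4-11 cells plated at 300/well and grown 6 days.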

[3] = biological target: wild type MLL1 four-member complex (MLL1-4C) (Homo sapiens, UniProt P61964); assay: MLL1 LC-MS assay (SAH production); type: biochemical; details: read-out: (b) MLL LCMS Peptide Val.v.1 Qualified AC50
Outline: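 SAH formation, measured by LC-MS/MS after a TFA quench containing d4-SAH, was normalised to no-compound and no-enzyme controls and fitted to a dose-response curve for IC50. Reactions ran 120 min at rt (pH 8.0 Tris buffer) with final 30 nM MLL1 four-member complex, 2.5 μM SAM and 10 μM biotinylated H3[1-21] peptide, after a 20-min enzyme/SAM-compound preincubation.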

| IC50 [1] | AC50 [3] | Structure (SMILES) | AC50 [2] |
| --- | --- | --- | --- |
| < 10 nM | 10 to 1000 nM | CCOc1cc([C@H](C)N2CCc3c(cc(CCN(C)CC)cc3-c3cn(C)nc3C(F)F)C2=O)ncc1C#N [Example 126, (S)-6-(1-(5-(3-(difluoromethyl)-1-methyl-1H-pyrazol-4-yl)-7-(2-(ethyl(methyl)amino)ethyl)-1-oxo-3,4-dihydroisoquinolin-2(1H)-yl)ethyl)-4-ethoxynicotinonitrile] | 10 to 1000 nM |
| 10 to 1000 nM | 10 to 1000 nM | CCOc1cc(C(C)N2CCc3c(cc(CCN(C)CC)cc3-c3cc(C(C)O)cnc3Cl)C2=O)ncc1C#N (stereo not drawn) [Example 153, 6-(1-(5-(2-chloro-5-(1-hydroxyethyl)pyridin-3-yl)-7-(2-(ethyl(methyl)amino)ethyl)-1-oxo-3,4-dihydroisoquinolin-2(1H)-yl)ethyl)-4-ethoxynicotinonitrile] | 10 to 1000 nM |
| 10 to 1000 nM | 10 to 1000 nM | CNc1nccn1Cc1cc2c(c(C(F)F)c1)CCN([C@@H](C)c1cnc(F)c(OC)c1)C2=O [Example 93, (S)-5-(difluoromethyl)-2-(1-(6-fluoro-5-methoxypyridin-3-yl)ethyl)-7-((2-(methylamino)-1H-imidazol-1-yl)methyl)-3,4-dihydroisoquinolin-1(2H)-one] | 10 to 1000 nM |
| < 10 nM | 10 to 1000 nM | CCOc1cc([C@H](C)N2CCc3c(cc(CCN4C[C@@H](O)[C@H]4C)cc3-c3ccc(F)nc3C)C2=O)ncc1C#N [Example 217] | 10 to 1000 nM |
| < 10 nM | 10 to 1000 nM | CCOc1cc([C@H](C)N2CCc3c(cc(CCN(C)CC)cc3-c3cccnc3C)C2=O)ncc1C#N [Example 139, (S)-4-ethoxy-6-(1-(7-(2-(ethyl(methyl)amino)ethyl)-5-(2-methylpyridin-3-yl)-1-oxo-3,4-dihydroisoquinolin-2(1H)-yl)ethyl)nicotinonitrile] | 10 to 1000 nM |
| < 10 nM | 10 to 1000 nM | CCOc1cc([C@H](C)N2CCc3c(cc(Cn4ccnc4C)cc3-c3cn(S(C)(=O)=O)nc3C)C2=O)ncc1C#N [Example 284] | 10 to 1000 nM |
| < 10 nM | 10 to 1000 nM | CCOc1cc([C@H](C)N2CCc3c(cc(Cn4ccnc4C)cc3-c3cn(C)c(=O)c(F)c3C)C2=O)ncc1F [Example 283] | 10 to 1000 nM |
| < 10 nM | 10 to 1000 nM | CCOc1cc([C@H](C)N2CCc3c(cc(CCN(C)CC)cc3-c3c[nH]nc3C)C2=O)ncc1C#N [Example 116, (S)-4-ethoxy-6-(1-(7-(2-(ethyl(methyl)amino)ethyl)-5-(3-methyl-1H-pyrazol-4-yl)-1-oxo-3,4-dihydroisoquinolin-2(1H)-yl)ethyl)nicotinonitrile] | 10 to 1000 nM |
| 10 to 1000 nM | 10 to 1000 nM | COc1cc([C@H](C)N2CCc3c(cc(Cn4ccnc4C)cc3-c3nn(C)c(=O)cc3C(F)(F)F)C2=O)ncc1C#N [Example 296] | 10 to 1000 nM |
| < 10 nM | 10 to 1000 nM | CCOc1cc([C@H](C)N2CCc3c(cc(CCN(C)CC)cc3-c3cc(C(C)O)cnc3C)C2=O)ncc1C#N (stereo partly drawn) [Example 186, 4-ethoxy-6-((1S)-1-(7-(2-(ethyl(methyl)amino)ethyl)-5-(5-(1-hydroxyethyl)-2-methylpyridin-3-yl)-1-oxo-3,4-dihydroisoquinolin-2(1H)-yl)ethyl)nicotinonitrile] | 10 to 1000 nM |
| < 10 nM | 10 to 1000 nM | CCOc1cc([C@H](C)N2CCc3c(cc(CCN4C[C@@H](O)[C@H]4C)cc3-c3cc(C(F)F)cnc3C)C2=O)ncc1C#N [Example 218] | 10 to 1000 nM |
| < 10 nM | 10 to 1000 nM | CCOc1cc([C@H](C)N2CCc3c(cc(CCN(C)CC)cc3-c3cn(CC)nc3C(F)F)C2=O)ncc1C#N [Example 165, (S)-6-(1-(5-(3-(difluoromethyl)-1-ethyl-1H-pyrazol-4-yl)-7-(2-(ethyl(methyl)amino)ethyl)-1-oxo-3,4-dihydroisoquinolin-2(1H)-yl)ethyl)-4-ethoxynicotinonitrile] | 10 to 1000 nM |
| < 10 nM | 10 to 1000 nM | CCOc1cc(CN2CCc3c(cc(CCN(C)CC)cc3-c3cc(OC)ncc3C)C2=O)ncc1C#N [Example 164, 4-ethoxy-6-((7-(2-(ethyl(methyl)amino)ethyl)-5-(2-methoxy-5-methylpyridin-4-yl)-1-oxo-3,4-dihydroisoquinolin-2(1H)-yl)methyl)nicotinonitrile] | 10 to 1000 nM |

The next lines start with the compound.

| Structure (SMILES) | IC50 [1] | AC50 [3] | AC50 [2] |
| --- | --- | --- | --- |
| CCOc1cc(C(C)N2CCc3c(Br)cc(Cn4ccnc4NC)cc3C2=O)ncc1C#N (stereo not drawn) [Example 1, 6-(1-(5-bromo-7-((2-(methylamino)-1H-imidazol-1-yl)methyl)-1-oxo-3,4 dihydroisoquinolin-2(1H)-yl)ethyl)-4-ethoxynicotinonitrile] | 10 to 1000 nM | 10 to 1000 nM | 10 to 1000 nM |
| CNc1nccn1Cc1cc2c(c(-c3cc(CO)cnc3Cl)c1)CCN([C@@H](C)c1ccc(F)c(OC)c1)C2=O [Example 56, (S)-5-(2-chloro-5-(hydroxymethyl)pyridin-3-yl)-2-(1-(4-fluoro-3-methoxyphenyl)ethyl)-7-((2-(methylamino)-1H-imidazol-1-yl)methyl)-3,4-dihydroisoquinolin-1(2H)-one] | 10 to 1000 nM | 10 to 1000 nM | 10 to 1000 nM |
| CCOc1cc([C@H](C)N2CCc3c(CN4CC[C@H](F)C4)cc(Cn4ccnc4NC)cc3C2=O)ncc1F [Example 37, 2-((S)-1-(4-ethoxy-5-fluoropyridin-2-yl)ethyl)-5-(((S)-3-fluoropyrrolidin-1-yl)methyl)-7-((2-(methylamino)-1H-imidazol-1-yl)methyl)-3,4-dihydroisoquinolin-1(2H)-one] | 10 to 1000 nM | 10 to 1000 nM | 10 to 1000 nM |
| CNc1nccn1Cc1cc2c(c(-c3cn(C)nc3C(F)(F)F)c1)CCN(Cc1cc(OC)c(F)cn1)C2=O [Example 64, 2-((5-fluoro-4-methoxypyridin-2-yl)methyl)-5-(1-methyl-3-(trifluoromethyl)-1H-pyrazol-4-yl)-7-((2-(methylamino)-1H-imidazol-1-yl)methyl)-3,4-dihydroisoquinolin-1(2H)-one] | 10 to 1000 nM | 10 to 1000 nM | 10 to 1000 nM |
| CCOc1cc([C@H](C)N2CCc3c(CN4CC(F)C4)cc(Cn4ccnc4NC)cc3C2=O)ncc1C#N [Example 28, (S)-4-ethoxy-6-(1-(5-((3-fluoroazetidin-1-yl)methyl)-7-((2-(methylamino)-1H-imidazol-1-yl)methyl)-1-oxo-3,4-dihydroisoquinolin-2(1H)-yl)ethyl)nicotinonitrile] | 10 to 1000 nM | 10 to 1000 nM | 10 to 1000 nM |
| CNc1nccn1Cc1cc(CN(C)CC(F)F)c2c(c1)C(=O)N([C@@H](C)c1cc(OC)c(F)cn1)CC2 [Example 35, (S)-5-(((2,2-difluoroethyl)(methyl)amino)methyl)-2-(1-(5-fluoro-4-methoxypyridin-2-yl)ethyl)-7-((2-(methylamino)-1H-imidazol-1-yl)methyl)-3,4-dihydroisoquinolin-1(2H)-one] | 10 to 1000 nM | 10 to 1000 nM | 10 to 1000 nM |
| CNc1nccn1Cc1cc2c(c(-c3cc(CO)ccc3Cl)c1)CCN(Cc1ccc(F)c(OC)c1)C2=O [Example 65, 5-(2-chloro-5-(hydroxymethyl)phenyl)-2-(4-fluoro-3-methoxybenzyl)-7-((2-(methylamino)-1H-imidazol-1-yl)methyl)-3,4-dihydroisoquinolin-1(2H)-one] | 10 to 1000 nM | 10 to 1000 nM | 10 to 1000 nM |
| CNc1nccn1Cc1cc(CN2CC(F)(F)C2)c2c(c1)C(=O)N(Cc1cc(OC)c(F)cn1)CC2 [Example 38, 5-((3,3-difluoroazetidin-1-yl)methyl)-2-((5-fluoro-4-methoxypyridin-2-yl)methyl)-7-((2-(methylamino)-1H-imidazol-1-yl)methyl)-3,4-dihydroisoquinolin-1(2H)-one] | 10 to 1000 nM | 10 to 1000 nM | 10 to 1000 nM |
| CNc1nccn1Cc1cc2c(c(-c3cncnc3)c1)CCN([C@@H](C)c1cc(OC)c(F)cn1)C2=O [Example 59, (S)-2-(1-(5-fluoro-4-methoxypyridin-2-yl)ethyl)-7-((2-(methylamino)-1H-imidazol-1-yl)methyl)-5-(pyrimidin-5-yl)-3,4-dihydroisoquinolin-1(2H)-one] | 10 to 1000 nM | 10 to 1000 nM | 10 to 1000 nM |
| CNc1nccn1Cc1cc2c(c(-c3cn(C)nc3C)c1)CCN([C@@H](C)c1cc(OC)c(F)cn1)C2=O [Example 62, (S)-5-(1,3-dimethyl-1H-pyrazol-4-yl)-2-(1-(5-fluoro-4-methoxypyridin-2-yl)ethyl)-7-((2-(methylamino)-1H-imidazol-1-yl)methyl)-3,4-dihydroisoquinolin-1(2H)-one] | 10 to 1000 nM | 10 to 1000 nM | 10 to 1000 nM |
| CNc1nccn1Cc1cc(CN(C)C)c2c(c1)C(=O)N([C@@H](C)c1cnc(F)c(OC)c1)CC2 [Example 29, (S)-5-((dimethylamino)methyl)-2-(1-(6-fluoro-5-methoxypyridin-3-yl)ethyl)-7-((2-(methylamino)-1H-imidazol-1-yl)methyl)-3,4-dihydroisoquinolin-1(2H)-one] | 10 to 1000 nM | 10 to 1000 nM | 10 to 1000 nM |
